Test: xn = mol fraction of the nth substance listed
Conditions: 101 kPa

CN(CCO)CCO + CCCC[n+]1ccn(C)c1.F[B-](F)(F)F
viscosity [mPa·s]
Conditions | x2 = 0.1002 | x2 = 0.1974 | x2 = 0.3 | x2 = 0.4001 | x2 = 0.4998 | x2 = 0.6 | x2 = 0.6997 | x2 = 0.7998 | x2 = 0.8999
293.15 K | 89.3 | 82.9 | 78.9 | 75.2 | 73.6 | 74.2 | 79.1 | 87.9 | –
303.15 K | 49.9 | 46.2 | – | 42.4 | 42.4 | 43.8 | 47.5 | 53.1 | –
313.15 K | 30 | 28 | 26.4 | 26.1 | 26.4 | 27.7 | 30.4 | 34 | 41.2
323.15 K | 18.9 | – | 17.2 | 17.2 | 17.7 | – | 20.6 | 23.3 | 27.8
333.15 K | 12.75 | – | 11.84 | 12.03 | 12.44 | 13.35 | 14.8 | – | 19.8

— a compilation of properties of binary mixtures (doi:10.1016/j.molliq.2017.08.088)
